# Results reported in article PMC2529273, “Pharmacological Properties of DOV 315,090, an ocinaplon metabolite” (BMC Pharmacology, 2008).
# Several values for one entry are separate records, joined by “and”; a condition that tells them apart may be missing. Equal values may be shown once. Read-outs that look alike come from different tables or passages of the source.
# Assays:
# α1β2γ2S GABAA-R [1] = target: T1, α1β2γ2S GABAA-R (Rattus norvegicus, UniProt P18508+P62813); experiment: biochemical; format: binding
# Procedure: (§1) HEK293 cells (CRL 1573, American type Culture Collection, Rockville, MD, USA) were cultured in Dulbecco's modified Eagle's medium (D-MEM, Invitrogen, Carlsbad, CA, USA) supplemented with 10% fetal bovine serum (Invitrogen, Carlsbad, CA, USA) and 1% MEM Non-Essential Amino Acids Solution (Invitrogen, Carlsbad, CA, USA). cDNAs encoding rat GABAA-R subunits were in the following vectors: α1 and α5 in pRc/CMV, α2, α3, γ2S and γ3 in pcDNA3 and β2 in pcDNA1. The cells were transiently transfected (5 μg of each cDNA per 100 mm dish) using FuGene™ (Roche Diagnostics Corporation) at a 3:1 FuGene:DNA ratio. […] Forty-eight hours after transfection, cells were washed with ice-cold PBS, harvested and homogenized. Cell homogenates were centrifuged (100,000 g, 25 min) and washed three times by homogenization in ice-cold PBS buffer followed by centrifugation at 100,000 g for 25 min. The final pellets were stored at -20°C until needed.
# (§2) The samples were then diluted with 5 ml of ice-cold buffer and filtered under vacuum through glass-fiber filters (GF/B Whatman). Filters were washed 3 times with 5 ml of buffer and the radioactivity was quantitated by liquid scintillation counting in 5 ml of Ecolite scintillation fluid (ICN). Non-specific binding determined in the presence of 100 μM Ro 15–1788 (Sigma-Aldrich) was subtracted from total binding to calculate specific binding. Data were analyzed by non-linear regression (Prism, Graph-Pad software).
# α5β2γ2S GABAA-R [2] = target: T2, α5β2γ2S GABAA-R (Rattus norvegicus, UniProt P18508+P19969); experiment: biochemical; format: binding
# Procedure: as §1, §2
# α3β2γ2S GABAA-R [3] = target: T3, α3β2γ2S GABAA-R (Rattus norvegicus, UniProt P18508+P20236); experiment: biochemical; format: binding
# Procedure: as §1, §2
# α1β2γ3 GABAA-R = target: T4, α1β2γ3 GABAA-R (Rattus norvegicus, UniProt P28473+P62813); experiment: biochemical; format: binding
# T4 construct: expressed in transfected cells; host or cells: HEK293 (CRL 1573), transient transfection
# Procedure: as §1, §2
# α2β2γ2S GABAA-R [4] = target: T5, α2β2γ2S GABAA-R (Rattus norvegicus, UniProt P18508+P23576); experiment: biochemical; format: binding
# Procedure: as §1, §2
# α2β2γ3 GABAA-R = target: T6, α2β2γ3 GABAA-R (Rattus norvegicus, UniProt P23576+P28473); experiment: biochemical; format: binding
# T6 construct: expressed in transfected cells; host or cells: HEK293 (CRL 1573), transient transfection
# Procedure: as §1, §2
# α5β2γ3 GABAA-R = target: T7, α5β2γ3 GABAA-R (Rattus norvegicus, UniProt P19969+P28473); experiment: biochemical; format: binding
# T7 construct: expressed in transfected cells; host or cells: HEK293 (CRL 1573), transient transfection
# Procedure: as §1, §2
# α3β2γ2S GABAA-R [5] = target: T3, α3β2γ2S GABAA-R; experiment: cell-based; format: cell-based
# Procedure: (§3) cRNAs encoding GABAA-R α1, α2, α3, α5, β2 and γ2S subunits were injected into oocytes from Xenopus laevis. […] GABA (Sigma) was prepared as a 1 M stock solution in ND96. Microelectrodes of 1–3 MΩ when filled with 3 M KCl were used to record from oocytes in a recording chamber continuously perfused with ND-96 buffer solution. During data acquisition, oocytes were clamped at a holding potential of -70 mV. Drugs were applied by perfusion at a rate of approximately 50 μl sec^-1 for 20 s followed by a 120 s wash. […] All experiments were performed at room temperature (22–24°C).
# (§4) GABA concentration-response data was obtained for each subunit combination, and the GABA EC10 was determined by nonlinear regression using the logistic equation. This concentration of GABA was used for modulation studies. Peak current measurements were normalized and expressed as a fraction of the peak control current measurements. Control responses to an EC10 concentration of GABA were re-determined after every 2 – 4 applications of modulator + GABA. […] Potentiation data from each oocyte was fitted to the equation Potentiation = Emax × [Drug]/([Drug + EC50) by non-linear regression (Prism, Graph-Pad software). […] Given the lack of consistency of this possible high affinity effect, we have omitted it in fitting our concentration-effect curves. The choice of fitting to a monophasic or biphasic equation had only a small effect on the EC50 for the major component of modulation.
# (§5) Rat GABAA-Rs consisting of α1β2γ2S, α2β2γ2S, α3β2γ2S and α5β2γ2S subunits were expressed in Xenopus oocytes. […] Higher concentrations (in parentheses) were excluded from the fit due to a decline in potentiation at higher concentrations.
# in vivo = format: in vivo, rat; conditions: rats, 1 h after administration of ocinaplon 5 mg/kg
# Procedure: At 1 h, corresponding to the time at which the anticonflict effect of ocinaplon was evaluated, the plasma concentration of DOV 315,090 is ~38% of the concentration of parent compound.
# Figure 2 Pharmacokinetics of ocinaplon and DOV 315,090. Blood levels of ocinaplon (●,○) and DOV 315090 (▲,△) were determined at various times after i.v. (●,▲) or oral (○,△) administration of 5 mg/kg ocinaplon to rats. […] This animal may have regurgitated a portion of the dose (of the suspension).
# α1β2γ2S GABAA-R [6] = target: T1, α1β2γ2S GABAA-R; experiment: cell-based
# Procedure: as §3, §4, §5
# α5β2γ2S GABAA-R [7] = target: T2, α5β2γ2S GABAA-R; experiment: cell-based
# Procedure: as §3, §4, §5
# α2β2γ2S GABAA-R [8] = target: T5, α2β2γ2S GABAA-R; experiment: cell-based
# Procedure: as §3, §4, §5
# [9] = [3H]Ro15-1788 displacement, n = 3, read-out: IC50
# [10] = mean ± SEM, n = 3, read-out: pIC50 (converted)
# T7 sequence (P19969 32-464 limits assumed): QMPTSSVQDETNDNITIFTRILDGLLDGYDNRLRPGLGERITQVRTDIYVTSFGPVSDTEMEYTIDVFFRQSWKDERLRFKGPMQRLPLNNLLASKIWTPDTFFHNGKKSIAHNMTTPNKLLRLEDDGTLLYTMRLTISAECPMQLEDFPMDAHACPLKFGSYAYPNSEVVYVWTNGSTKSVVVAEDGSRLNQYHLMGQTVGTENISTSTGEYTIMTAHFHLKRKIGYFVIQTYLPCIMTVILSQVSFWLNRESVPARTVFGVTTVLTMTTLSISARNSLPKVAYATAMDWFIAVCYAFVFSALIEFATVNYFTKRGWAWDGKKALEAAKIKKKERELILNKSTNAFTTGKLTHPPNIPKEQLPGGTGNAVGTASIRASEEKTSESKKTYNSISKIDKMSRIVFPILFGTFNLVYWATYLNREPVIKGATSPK
# T7 sequence (P63138 25-474 partner limits assumed): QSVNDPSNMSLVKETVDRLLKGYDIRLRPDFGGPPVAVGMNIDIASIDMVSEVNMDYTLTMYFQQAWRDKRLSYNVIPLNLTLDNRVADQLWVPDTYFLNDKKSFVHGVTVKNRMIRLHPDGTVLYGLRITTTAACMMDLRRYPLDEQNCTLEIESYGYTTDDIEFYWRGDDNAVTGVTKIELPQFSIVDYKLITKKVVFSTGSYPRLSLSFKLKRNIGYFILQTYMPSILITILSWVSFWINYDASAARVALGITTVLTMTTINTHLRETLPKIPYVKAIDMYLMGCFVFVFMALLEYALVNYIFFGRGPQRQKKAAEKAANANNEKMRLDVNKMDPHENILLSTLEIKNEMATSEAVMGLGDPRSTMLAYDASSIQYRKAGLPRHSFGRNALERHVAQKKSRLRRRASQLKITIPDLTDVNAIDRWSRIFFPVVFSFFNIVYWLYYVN
# T7 sequence (P28473 18-467): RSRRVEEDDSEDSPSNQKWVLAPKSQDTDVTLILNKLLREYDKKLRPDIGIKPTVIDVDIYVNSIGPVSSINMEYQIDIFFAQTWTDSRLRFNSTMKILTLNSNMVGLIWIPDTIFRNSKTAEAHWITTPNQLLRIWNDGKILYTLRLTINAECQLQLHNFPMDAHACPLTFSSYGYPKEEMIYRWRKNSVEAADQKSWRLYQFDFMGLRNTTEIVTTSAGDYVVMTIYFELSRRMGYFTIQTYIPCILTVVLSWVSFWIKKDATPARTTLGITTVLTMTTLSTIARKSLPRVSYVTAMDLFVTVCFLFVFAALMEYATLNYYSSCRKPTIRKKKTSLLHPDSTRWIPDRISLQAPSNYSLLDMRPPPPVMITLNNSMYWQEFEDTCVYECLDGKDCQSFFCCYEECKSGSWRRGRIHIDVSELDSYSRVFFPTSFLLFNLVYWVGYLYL
# T2 sequence (P19969 32-464 limits assumed): as the sequence (P19969 32-464 limits assumed) above
# T2 sequence (P63138 25-474 partner limits assumed): as the sequence (P63138 25-474 partner limits assumed) above
# T2 sequence (P18508 39-466): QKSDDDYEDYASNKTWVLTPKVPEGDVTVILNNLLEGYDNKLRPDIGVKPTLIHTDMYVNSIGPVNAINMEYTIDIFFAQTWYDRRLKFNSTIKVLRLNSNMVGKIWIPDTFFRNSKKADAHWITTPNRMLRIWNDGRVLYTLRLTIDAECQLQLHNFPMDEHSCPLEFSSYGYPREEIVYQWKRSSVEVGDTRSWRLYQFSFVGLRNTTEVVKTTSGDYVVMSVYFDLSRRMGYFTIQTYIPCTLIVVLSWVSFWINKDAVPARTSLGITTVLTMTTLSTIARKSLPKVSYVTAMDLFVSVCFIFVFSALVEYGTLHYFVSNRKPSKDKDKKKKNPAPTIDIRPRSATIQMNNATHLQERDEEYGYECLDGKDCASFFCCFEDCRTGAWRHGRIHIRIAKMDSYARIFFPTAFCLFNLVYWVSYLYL
# T1 sequence (P62813 28-455): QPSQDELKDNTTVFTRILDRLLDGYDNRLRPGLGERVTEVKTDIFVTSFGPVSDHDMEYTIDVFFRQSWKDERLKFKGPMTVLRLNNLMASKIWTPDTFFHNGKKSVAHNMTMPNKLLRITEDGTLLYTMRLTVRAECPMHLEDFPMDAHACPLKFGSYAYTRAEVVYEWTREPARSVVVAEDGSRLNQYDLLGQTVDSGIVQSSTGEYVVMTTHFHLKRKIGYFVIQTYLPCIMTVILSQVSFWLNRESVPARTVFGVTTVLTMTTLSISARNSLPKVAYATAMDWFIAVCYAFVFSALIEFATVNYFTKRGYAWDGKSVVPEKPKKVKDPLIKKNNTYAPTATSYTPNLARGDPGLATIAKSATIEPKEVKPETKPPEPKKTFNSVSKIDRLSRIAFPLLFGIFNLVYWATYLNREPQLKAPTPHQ
# T1 sequence (P63138 25-474 partner limits assumed): as the sequence (P63138 25-474 partner limits assumed) above
# T1 sequence (P18508 39-466): as the sequence (P18508 39-466) above
# T4 sequence (P62813 28-455): as the sequence (P62813 28-455) above
# T4 sequence (P63138 25-474 partner limits assumed): as the sequence (P63138 25-474 partner limits assumed) above
# T4 sequence (P28473 18-467): as the sequence (P28473 18-467) above
# T5 sequence (P23576 29-451): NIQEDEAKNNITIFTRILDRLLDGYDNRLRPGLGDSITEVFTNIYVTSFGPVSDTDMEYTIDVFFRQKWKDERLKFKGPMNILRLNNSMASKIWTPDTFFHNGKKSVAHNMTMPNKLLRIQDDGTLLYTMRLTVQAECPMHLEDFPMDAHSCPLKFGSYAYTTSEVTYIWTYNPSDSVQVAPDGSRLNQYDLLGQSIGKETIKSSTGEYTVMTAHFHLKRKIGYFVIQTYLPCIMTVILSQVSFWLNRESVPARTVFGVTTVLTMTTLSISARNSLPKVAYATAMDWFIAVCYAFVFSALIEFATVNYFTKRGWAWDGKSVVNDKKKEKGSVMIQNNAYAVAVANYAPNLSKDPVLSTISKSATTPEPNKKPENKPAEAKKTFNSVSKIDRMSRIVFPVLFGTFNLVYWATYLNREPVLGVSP
# T5 sequence (P63138 25-474 partner limits assumed): as the sequence (P63138 25-474 partner limits assumed) above
# T5 sequence (P18508 39-466): as the sequence (P18508 39-466) above
# T6 sequence (P23576 29-451): as the sequence (P23576 29-451) above
# T6 sequence (P63138 25-474 partner limits assumed): as the sequence (P63138 25-474 partner limits assumed) above
# T6 sequence (P28473 18-467): as the sequence (P28473 18-467) above
# T3 sequence (P20236 29-493): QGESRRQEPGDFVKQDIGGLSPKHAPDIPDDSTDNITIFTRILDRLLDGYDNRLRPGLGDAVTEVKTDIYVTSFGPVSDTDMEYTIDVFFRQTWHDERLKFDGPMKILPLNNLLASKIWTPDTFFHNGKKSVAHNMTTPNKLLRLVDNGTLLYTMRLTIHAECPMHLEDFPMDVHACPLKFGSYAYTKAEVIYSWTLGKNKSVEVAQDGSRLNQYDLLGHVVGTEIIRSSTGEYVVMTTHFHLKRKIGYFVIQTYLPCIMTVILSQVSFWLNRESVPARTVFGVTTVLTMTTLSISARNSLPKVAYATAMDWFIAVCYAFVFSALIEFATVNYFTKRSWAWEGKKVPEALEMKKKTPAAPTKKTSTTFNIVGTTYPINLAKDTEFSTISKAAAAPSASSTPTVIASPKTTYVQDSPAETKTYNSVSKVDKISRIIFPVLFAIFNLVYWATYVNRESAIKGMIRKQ
# T3 sequence (P63138 25-474 partner limits assumed): as the sequence (P63138 25-474 partner limits assumed) above
# T3 sequence (P18508 39-466): as the sequence (P18508 39-466) above
structure (smiles),measurement,setting,value
"O=C(c1ccccn1)c1cnn2c(-c3cc[n+]([O-])cc3)ccnc12 [DOV 315,090, (7-(1-Oxidopyridin-1-ium-4-yl)pyrazolo [1,5-a]pyrimidin-3-yl)(pyridin-2-yl)methanone]",IC50,α1β2γ2S GABAA-R [1]; [9],7 µM
same,IC50,α1β2γ2S GABAA-R [1]; [10],6.46 µM
same,IC50/DZ IC50,α1β2γ2S GABAA-R [1]; ratio to diazepam IC50,220
same,IC50/OC IC50,α1β2γ2S GABAA-R [1]; ratio to ocinaplon IC50,1.02
same,IC50,α5β2γ2S GABAA-R [2]; [9],22 µM
same,IC50,α5β2γ2S GABAA-R [2]; [10],21.4 µM
same,IC50/DZ IC50,α5β2γ2S GABAA-R [2]; ratio to diazepam IC50,790
same,IC50/OC IC50,α5β2γ2S GABAA-R [2]; ratio to ocinaplon IC50,2.24
same,IC50,α3β2γ2S GABAA-R [3]; [9],9.3 µM
same,IC50,α3β2γ2S GABAA-R [3]; [10],8.32 µM
same,IC50/DZ IC50,α3β2γ2S GABAA-R [3]; ratio to diazepam IC50,170
same,IC50/OC IC50,α3β2γ2S GABAA-R [3]; ratio to ocinaplon IC50,1.09
same,IC50,"α1β2γ3 GABAA-R; [3H]Ro15-1788 displacement, α1β2γ3, n = 3, read-out: IC50",5.5 µM
same,IC50,"α1β2γ3 GABAA-R; α1β2γ3, mean ± SEM, n = 3, read-out: pIC50 (converted)",5.37 µM
same,IC50/DZ IC50,"α1β2γ3 GABAA-R; α1β2γ3, ratio to diazepam IC50",25
same,IC50/OC IC50,"α1β2γ3 GABAA-R; α1β2γ3, ratio to ocinaplon IC50",2.40
same,IC50,α2β2γ2S GABAA-R [4]; [9],24 µM
same,IC50,α2β2γ2S GABAA-R [4]; [10],23.4 µM
same,IC50/DZ IC50,α2β2γ2S GABAA-R [4]; ratio to diazepam IC50,760
same,IC50/OC IC50,α2β2γ2S GABAA-R [4]; ratio to ocinaplon IC50,0.89
same,IC50,"α2β2γ3 GABAA-R; [3H]Ro15-1788 displacement, α2β2γ3, n = 3, read-out: IC50",20 µM
same,IC50,"α2β2γ3 GABAA-R; α2β2γ3, mean ± SEM, n = 3, read-out: pIC50 (converted)",19.1 µM
same,IC50/DZ IC50,"α2β2γ3 GABAA-R; α2β2γ3, ratio to diazepam IC50",120
same,IC50/OC IC50,"α2β2γ3 GABAA-R; α2β2γ3, ratio to ocinaplon IC50",0.98
same,IC50,"α5β2γ3 GABAA-R; [3H]Ro15-1788 displacement, α5β2γ3, n = 3, read-out: IC50",27 µM
same,IC50,"α5β2γ3 GABAA-R; α5β2γ3, mean ± SEM, n = 3, read-out: pIC50 (converted)",26.3 µM
same,IC50/DZ IC50,"α5β2γ3 GABAA-R; α5β2γ3, ratio to diazepam IC50",323
same,IC50/OC IC50,"α5β2γ3 GABAA-R; α5β2γ3, ratio to ocinaplon IC50",2.59
same,Emax,α3β2γ2S GABAA-R [5],340 ± 35%
same,EC50,"α3β2γ2S GABAA-R [5]; α3β2γ2S, GABA EC10, mean ± SEM, read-out: pEC50 (converted)",10 µM
same,EC50,"α3β2γ2S GABAA-R [5]; α3β2γ2S, GABA EC10, number of oocytes in parentheses, read-out: EC50",10.2 µM
same,EC50/DZ EC50,"α3β2γ2S GABAA-R [5]; α3β2γ2S, ratio to diazepam EC50",111
same,Emax/DZ Emax,"α3β2γ2S GABAA-R [5]; α3β2γ2S, ratio to diazepam Emax",1.46
same,EC50/OC EC50,"α3β2γ2S GABAA-R [5]; α3β2γ2S, ratio to ocinaplon EC50",1.27
same,Emax/OC Emax,"α3β2γ2S GABAA-R [5]; α3β2γ2S, ratio to ocinaplon Emax",~1.87
same,plasma concentration as % of the concentration of parent compound (ocinaplon),in vivo,~ 38% and 38%
same,Emax,α1β2γ2S GABAA-R [6],192 ± 4%
same,EC50,"α1β2γ2S GABAA-R [6]; α1β2γ2S, GABA EC10, number of oocytes in parentheses, read-out: EC50",4.87 µM
same,EC50/DZ EC50,"α1β2γ2S GABAA-R [6]; α1β2γ2S, ratio to diazepam EC50",128
same,Emax/DZ Emax,"α1β2γ2S GABAA-R [6]; α1β2γ2S, ratio to diazepam Emax",1.33
same,EC50/OC EC50,"α1β2γ2S GABAA-R [6]; α1β2γ2S, ratio to ocinaplon EC50",1.66
same,Emax/OC Emax,"α1β2γ2S GABAA-R [6]; α1β2γ2S, ratio to ocinaplon Emax",1.45
same,Emax,α5β2γ2S GABAA-R [7],68 ± 8%
same,EC50,"α5β2γ2S GABAA-R [7]; α5β2γ2S, GABA EC10, mean ± SEM, read-out: pEC50 (converted)",9.33 µM
same,EC50,"α5β2γ2S GABAA-R [7]; α5β2γ2S, GABA EC10, number of oocytes in parentheses, read-out: EC50",10.1 µM
same,EC50/DZ EC50,"α5β2γ2S GABAA-R [7]; α5β2γ2S, ratio to diazepam EC50",405
same,Emax/DZ Emax,"α5β2γ2S GABAA-R [7]; α5β2γ2S, ratio to diazepam Emax",0.30
same,EC50/OC EC50,"α5β2γ2S GABAA-R [7]; α5β2γ2S, ratio to ocinaplon EC50",2.92
same,Emax/OC Emax,"α5β2γ2S GABAA-R [7]; α5β2γ2S, ratio to ocinaplon Emax",0.81
same,Emax,α2β2γ2S GABAA-R [8],139 ± 23%
same,EC50,"α2β2γ2S GABAA-R [8]; α2β2γ2S, GABA EC10, mean ± SEM, read-out: pEC50 (converted)",12 µM
same,EC50,"α2β2γ2S GABAA-R [8]; α2β2γ2S, GABA EC10, number of oocytes in parentheses, read-out: EC50",12.5 µM
same,EC50/DZ EC50,"α2β2γ2S GABAA-R [8]; α2β2γ2S, ratio to diazepam EC50",482
same,Emax/DZ Emax,"α2β2γ2S GABAA-R [8]; α2β2γ2S, ratio to diazepam Emax",0.88
same,EC50/OC EC50,"α2β2γ2S GABAA-R [8]; α2β2γ2S, ratio to ocinaplon EC50",1.37
same,Emax/OC Emax,"α2β2γ2S GABAA-R [8]; α2β2γ2S, ratio to ocinaplon Emax",0.92
